Assay results reported in paper PMC9609428, “Rational Design and Synthesis of New Selective COX-2 Inhibitors with In Vivo PGE2-Lowering Activity by Tethering Benzenesulfonamide and 1,2,3-Triazole Pharmacophores to Some NSAIDs” (Pharmaceuticals, 2022).

Columns and labels:
[1] = target: T1, human COX-2 (Homo sapiens, UniProt P35354); assay: In vitro human COX-2 enzymatic inhibitory activity (Cayman COX inhibitor screening assay kit); type: biochemical; conditions: for SI COX-1/COX-2: COX-2 selectivity index: COX-1 IC50/COX-2 IC50; for IC50: mean ± SEM of triplicate determinations
T1 construct: purchased Cayman Chemicals Inc., Ann Arbor, MI, USA 560131
T1 sequence (P35354 18-604): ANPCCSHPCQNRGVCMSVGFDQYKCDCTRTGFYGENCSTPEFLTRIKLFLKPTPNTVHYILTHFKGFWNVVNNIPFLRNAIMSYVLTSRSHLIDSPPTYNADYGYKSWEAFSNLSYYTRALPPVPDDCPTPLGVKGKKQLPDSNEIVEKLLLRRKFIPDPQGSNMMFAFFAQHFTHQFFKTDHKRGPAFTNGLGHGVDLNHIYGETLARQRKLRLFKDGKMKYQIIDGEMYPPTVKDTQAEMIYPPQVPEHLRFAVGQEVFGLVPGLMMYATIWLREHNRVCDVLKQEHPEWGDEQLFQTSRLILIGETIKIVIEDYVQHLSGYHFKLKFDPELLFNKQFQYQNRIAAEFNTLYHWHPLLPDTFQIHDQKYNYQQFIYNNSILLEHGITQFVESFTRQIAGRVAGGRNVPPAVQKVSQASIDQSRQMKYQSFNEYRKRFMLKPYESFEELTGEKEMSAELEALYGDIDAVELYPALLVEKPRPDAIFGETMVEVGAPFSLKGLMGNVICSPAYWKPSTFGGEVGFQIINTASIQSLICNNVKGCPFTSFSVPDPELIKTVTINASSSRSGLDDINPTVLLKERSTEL
Method: (§1) Inhibitory activities were defined as a test compound concentration achieving 50% human COX-1 or human COX-2 inhibition. The selectivity of compounds was referred to as a compound’s selectivity index values calculated as IC50 (COX-1)/IC50 (COX-2).
(§2) In vitro human COX-1 and human COX-2 enzymatic inhibitory activity of the tested compounds as well as the reference drugs was carried out according to the previously mentioned procedures; for details, see Page S15, Supplementary File.
(§3) 4.2. Biological screening
(§4) 4.2.1. In vitro human COX-1 and human COX-2 enzymatic inhibitory activities In vitro human COX-1 and human COX-2 enzymatic inhibitory activity of the tested compounds as well as the reference drugs was carried out according to the previously mentioned procedures [1][2]depending on Cayman colorimetric COX (ovine) inhibitor screening assay kit (Catalog No.
(§5) All reagents, test solutions and experimental procedures were performed in correspondence to both the manufacturer’s instructions and previously reported methods. Briefly, […] of different concentrations of tested compound solutions were added to a series of supplied reaction buffer solutions (960 µL, 0.1 M Tris-HCl, pH 8.0 containing 5 mM EDTA and 2 mM phenol) with either COX-1 or COX-2 (10 µL) enzyme in the presence of heme (10 µL). 10 µL of Arachidonic Acid (100 µM) solution were added to the mixtures of the enzyme and tested compounds, After incubating for 5 min at 25 °C followed by stopping COX reaction by adding of 50 µL of 1 M HCl. Moreover, after adding 100 µL of saturated stannous chloride solution, the absorbance was measured spectrophotometrically using plate reader. measuring the […]
(§6) percentage of human COX-1 or human COX-2 enzymatic inhibition of five different concentrations of each compound and then concentration-inhibition response curve were plotted to obtain IC50 values(three determinations). […]

[2] = target: T2, (Ovis aries, UniProt P05979); assay: In vitro human COX-1 enzymatic inhibitory activity (Cayman COX inhibitor screening assay kit); type: biochemical; conditions: mean ± SEM of triplicate determinations
T2 construct: purchased Cayman Chemicals Inc., Ann Arbor, MI, USA 560131
T2 sequence (P05979 25-600): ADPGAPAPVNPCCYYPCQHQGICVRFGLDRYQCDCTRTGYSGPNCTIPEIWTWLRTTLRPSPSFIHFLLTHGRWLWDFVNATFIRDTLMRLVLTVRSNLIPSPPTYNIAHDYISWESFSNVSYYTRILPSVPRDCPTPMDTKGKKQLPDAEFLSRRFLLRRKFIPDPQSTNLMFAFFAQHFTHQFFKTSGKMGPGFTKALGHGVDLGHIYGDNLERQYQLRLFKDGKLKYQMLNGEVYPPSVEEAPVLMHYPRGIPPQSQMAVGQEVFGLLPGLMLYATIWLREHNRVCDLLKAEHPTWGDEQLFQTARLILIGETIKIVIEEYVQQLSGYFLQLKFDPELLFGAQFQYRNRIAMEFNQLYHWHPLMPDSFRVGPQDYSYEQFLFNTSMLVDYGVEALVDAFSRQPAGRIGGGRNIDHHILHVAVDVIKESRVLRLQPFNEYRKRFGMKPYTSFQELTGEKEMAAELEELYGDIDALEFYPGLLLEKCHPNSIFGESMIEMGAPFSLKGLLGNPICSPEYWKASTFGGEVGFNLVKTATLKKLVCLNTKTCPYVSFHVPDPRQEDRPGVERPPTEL
Method: as §1, §2, §3, §4, §5, §6

Row | SI COX-1/COX-2 [1] | IC50 [1] [µM] | melting point [°C] | IC50 [2] [µM] | Compound
1 | 159.57 | 0.07 ± 0.0006 | 257 to 259 | 11.17 ± 0.0333 | CC(=NNC(=O)C(C)c1ccc(CC(C)C)cc1)c1nnn(-c2ccc(S(=O)(=O)Nc3ncccn3)cc2)c1C (stereo not drawn) [Compound 6c, 4-(4-(1-(2-(2-(4-Isobutylphenyl)propanoyl)hydrazineylidene)ethyl)-5-methyl-1H-1,2,3-triazol-1-yl)-N-(pyrimidin-2-yl)benzenesulfonamide]
2 | 105 | 0.08 ± 0.0009 | 241 to 243 | 8.4 ± 0.0577 | CC(=NNC(=O)Cc1ccccc1Nc1c(Cl)cccc1Cl)c1nnn(-c2ccc(S(N)(=O)=O)cc2)c1C [Compound 6d, 4-(4-(1-(2-(2-(2-((2,6-Dichlorophenyl)amino)phenyl)acetyl)hydrazineylidene)ethyl)-5-methyl-1H-1,2,3-triazol-1-yl)benzenesulfonamide]
3 | 158.38 | 0.08 ± 0.0007 | 276 to 278 | 12.67 ± 0.0333 | CC(=NNC(=O)Cc1ccccc1Nc1c(Cl)cccc1Cl)c1nnn(-c2ccc(S(=O)(=O)Nc3ncccn3)cc2)c1C [Compound 6f, 4-(4-(1-(2-(2-(2-((2,6-Dichlorophenyl)amino)phenyl)acetyl)hydrazineylidene)ethyl)-5-methyl-1H-1,2,3-triazol-1-yl)-N-(pyrimidin-2-yl)benzenesulfonamide]
4 | 83.38 | 0.08 ± 0.0006 | 220 to 222 | 6.67 ± 0.0667 | CC(=NNC(=O)c1ccccc1O)c1nnn(-c2ccc(S(N)(=O)=O)cc2)c1C [Compound 6g, 4-(4-(1-(2-(2-Hydroxybenzoyl)hydrazineylidene)ethyl)-5-methyl-1H-1,2,3-triazol-1-yl)benzenesulfonamide]
5 | 91.89 | 0.09 ± 0.0006 | 227 to 229 | 8.27 ± 0.0667 | CC(=NNC(=O)c1ccccc1O)c1nnn(-c2ccc(S(=O)(=O)Nc3nccs3)cc2)c1C [Compound 6h, 4-(4-(1-(2-(2-Hydroxybenzoyl)hydrazineylidene)ethyl)-5-methyl-1H-1,2,3-triazol-1-yl)-N-(thiazol-2-yl)benzenesulfonamide]
6 | 146.14 | 0.07 ± 0.0006 | 248 to 250 | 10.23 ± 0.0882 | CC(=NNC(=O)c1ccccc1O)c1nnn(-c2ccc(S(=O)(=O)Nc3ncccn3)cc2)c1C [Compound 6i, 4-(4-(1-(2-(2-Hydroxybenzoyl)hydrazineylidene)ethyl)-5-methyl-1H-1,2,3-triazol-1-yl)-N-(pyrimidin-2-yl)benzenesulfonamide]
